The compounds below were run against S-adenosylhomocysteine hydrolase (Homo sapiens) (assay: Inhibition of S-adenosylhomocysteine hydrolase (unknown origin)).
`Nc1ncc(Br)c2c1ncn2C1=C[C@@H](CO)[C@H](O)[C@@H]1O` gave an IC50 of 10000 nM.
For `Nc1ncc(Br)c2c1ncn2[C@@H]1C=C(CO)[C@@H](O)[C@H]1O`, the IC50 was 2.7 nM.
Compound `Nc1ncc(Br)c2c1ncn2C1=C[C@H](CO)[C@@H](O)[C@H]1O` has an IC50 of 13 nM.

— BindingDB's records for doi:10.1016/j.bmcl.2015.12.061 (Auburn University, 2016)
